This note sets out measurements from patent publication US20150064697A1 (priority 2012, published 2015).

The subject of experiment [1] is LLC cells. As to the kind of experiment: Dot-blot hybridization for GSAT RNA. Conditions: 10 μM 48 hours.
Experiment [2] has as its system SCC-VII cells. As to the kind of experiment: RT-PCR of IFNβ1, IRF7 and CXCL10 mRNA. The conditions noted are these: 10 μM 48 hours.
The test system of experiment [3] is primary mouse hepatocytes (quiescent). The experiment is described as follows: Viability of quiescent primary hepatocytes (methylene blue). The experiment is classed as cell-based. The conditions noted are these: p53-wt and null hepatocytes, 5 days.
Experiment [4] relates to CT26 cells. As to the kind of experiment: Dot-blot hybridization for GSAT RNA. The conditions noted are these: CT26, 10 μM 48 hours.
The subject of experiment [5] is SCC-VII cells. As to the kind of experiment: Dot-blot hybridization for GSAT RNA. The conditions noted are these: 10 μM 48 hours.
Experiment [6] deals with CT26 cells. As to the kind of experiment: Cell viability assay (methylene blue), cytotoxicity of 5-aza-dC. Type of experiment: cell-based, mouse. The conditions noted are these: 5 days treatment.
For experiment [7], the system named is LLC cells. Described as above. Type of experiment: cell-based, mouse. The conditions noted are these: 5 days treatment.
Experiment [8] relates to LLC cells. The experiment is described as follows: RT-PCR of IFNβ1, IRF7 and CXCL10 mRNA. Conditions: 10 μM 48 hours.
Experiment [9] deals with SCC-VII cells. As to the kind of experiment: Cell viability assay (methylene blue), cytotoxicity of 5-aza-dC. Conditions: 5 days treatment. Type of experiment: cell-based, mouse.
Experiment [10] addresses DNA methyltransferase I (DNMT1) (Mus musculus, UniProt P13864). As to the kind of experiment: Western blot of DNMT1 protein level. The experiment is classed as cell-based. The conditions noted are these: both p53-WT and p53-null cells, 48 hours.
For experiment [11], the system named is caspases 3 and 7 in ifnar−/− MEFs. The experiment is described as follows: Caspase-3,7 activity assay (Ac-DEVD-AMC). The conditions noted are these: 48 hours.

Chain of DNA methyltransferase I (DNMT1) (P13864 whole entry): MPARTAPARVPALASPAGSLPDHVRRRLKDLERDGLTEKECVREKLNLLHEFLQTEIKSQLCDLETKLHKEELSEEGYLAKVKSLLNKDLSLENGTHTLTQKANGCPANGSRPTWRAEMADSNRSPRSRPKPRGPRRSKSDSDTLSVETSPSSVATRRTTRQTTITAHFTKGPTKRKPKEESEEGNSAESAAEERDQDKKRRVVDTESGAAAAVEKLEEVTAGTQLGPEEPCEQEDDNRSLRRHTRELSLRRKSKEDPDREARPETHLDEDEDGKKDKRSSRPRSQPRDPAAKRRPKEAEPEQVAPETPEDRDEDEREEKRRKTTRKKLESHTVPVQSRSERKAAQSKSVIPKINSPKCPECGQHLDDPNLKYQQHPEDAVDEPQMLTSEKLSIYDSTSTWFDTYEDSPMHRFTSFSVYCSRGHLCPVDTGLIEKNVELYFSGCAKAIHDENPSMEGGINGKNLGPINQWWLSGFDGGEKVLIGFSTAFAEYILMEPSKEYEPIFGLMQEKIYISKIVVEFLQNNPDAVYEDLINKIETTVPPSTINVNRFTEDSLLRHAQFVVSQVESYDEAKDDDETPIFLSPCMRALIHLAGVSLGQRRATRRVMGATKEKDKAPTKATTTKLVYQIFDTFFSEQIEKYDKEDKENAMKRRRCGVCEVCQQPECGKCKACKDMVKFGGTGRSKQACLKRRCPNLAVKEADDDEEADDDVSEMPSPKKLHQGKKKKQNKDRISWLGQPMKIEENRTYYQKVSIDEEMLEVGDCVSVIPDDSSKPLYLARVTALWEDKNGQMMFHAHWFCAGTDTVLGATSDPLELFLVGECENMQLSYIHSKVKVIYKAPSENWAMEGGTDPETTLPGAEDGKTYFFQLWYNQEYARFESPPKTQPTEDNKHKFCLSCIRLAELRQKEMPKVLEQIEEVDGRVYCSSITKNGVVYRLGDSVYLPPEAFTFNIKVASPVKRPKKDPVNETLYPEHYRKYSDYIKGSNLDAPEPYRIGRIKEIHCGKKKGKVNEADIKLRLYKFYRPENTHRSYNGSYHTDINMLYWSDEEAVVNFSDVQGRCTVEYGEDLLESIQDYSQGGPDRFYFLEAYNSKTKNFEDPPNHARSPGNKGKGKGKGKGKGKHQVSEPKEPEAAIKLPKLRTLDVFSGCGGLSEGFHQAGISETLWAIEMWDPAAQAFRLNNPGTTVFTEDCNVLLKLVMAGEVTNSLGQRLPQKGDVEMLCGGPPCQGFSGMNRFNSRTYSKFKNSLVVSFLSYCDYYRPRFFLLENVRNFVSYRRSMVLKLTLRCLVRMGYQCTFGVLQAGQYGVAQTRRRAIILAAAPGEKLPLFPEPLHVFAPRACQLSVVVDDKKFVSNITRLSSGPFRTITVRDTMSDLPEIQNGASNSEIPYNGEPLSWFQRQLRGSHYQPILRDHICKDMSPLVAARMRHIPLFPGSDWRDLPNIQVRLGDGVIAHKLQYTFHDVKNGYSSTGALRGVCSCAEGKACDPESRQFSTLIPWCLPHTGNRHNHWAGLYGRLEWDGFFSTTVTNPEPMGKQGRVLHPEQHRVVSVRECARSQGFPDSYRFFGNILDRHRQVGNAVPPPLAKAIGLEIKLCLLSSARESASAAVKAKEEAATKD

`Nc1ncn([C@H]2C[C@H](O)[C@@H](CO)O2)c(=O)n1` [5-aza-dC, 5-aza-2′-deoxycytidine]: the “expression of GSAT RNA upon treatment” value with LLC cells [1] is given as “undetectable”; with CT26 cells [4], “intermediate”; with SCC-VII cells [5], “strong”. The results for the “mRNAs encoding IFNβ1, IRF7 and CXCL10” value with SCC-VII cells [2] and in the experiment on LLC cells [8] were “strong upregulation” and “none of these IFN response-associated transcripts was detected”, respectively. Besides, in [3], the “sensitivity of quiescent cells to cultivation with 5-aza-dC” value is listed as “resistant”. The LD50 is 2 µM in the experiment on CT26 cells [6], 14 µM in the experiment with LLC cells [7] and 0.125 µM in the experiment on SCC-VII cells [9]. In experiment [10], the “free DNMT1 protein after treatment” value is “complete depletion”. Besides, in experiment [11], the caspase activation entry is “No signs of caspase activation”.
